22 molecules from BindingDB's records for doi:10.1016/j.bmc.2017.06.018 (Chungnam National University, 2017) can be followed below.

pIC50: −log10 of the molar value. Bounds are passed on as bounds.

A short description of this experiment: Inhibition of IL-5 in mouse Y16 cells assessed as reduction in cell proliferation after 48 hrs by WST-1 assay.
`CC(C)(C)CCOc1cccc2occ(CN(CCO)C(=O)Oc3ccccc3)c(=O)c12`: the pIC50 is < 4.52.

For the molecule `CCCC(=O)N(CCO)Cc1coc2cccc(OCC3CCCCC3)c2c1=O`, the pIC50 is 4.60.

As for `O=C(NCc1ccccc1)N(CCO)Cc1coc2cccc(OCC3CCCCC3)c2c1=O`, the negative-log IC50 (pIC50) was 4.74.

On to `O=C(Nc1ccccc1)N(CCO)Cc1coc2cccc(OCC3CCCCC3)c2c1=O`, for which the pIC50 was 4.77.

`O=C(NCCCc1ccccc1)N(CCO)Cc1coc2cccc(OCC3CCCCC3)c2c1=O`: the pIC50 was 4.82.

As to `CC(C)CCOc1cccc2occ(CN(CCO)C(=O)Oc3ccccc3)c(=O)c12`, the pIC50 was < 4.52.

For `O=C(Nc1ccc(Cl)cc1)N(CCO)Cc1coc2cccc(OCC3CCCCC3)c2c1=O`, the pIC50 is < 4.52.

Consider `CC(C)CCOc1cccc2occ(CN(CCO)C(=O)Nc3ccccc3)c(=O)c12`, for which the pIC50 is < 4.52.

Regarding `CCC(=O)N(CCO)Cc1coc2cccc(OCC3CCCCC3)c2c1=O`, the pIC50 is 4.60.

With `O=c1c(-c2ccc(O[C@H]3O[C@@H](CO)[C@H](O)[C@@H](O)[C@@H]3O)cc2)coc2cc(O)cc(O)c12`, the pIC50 was 4.97.

Turning to `CC(C)CCOc1cccc2occ(CN(CCO)C(=O)Cc3ccccc3)c(=O)c12`, the pIC50 is < 4.52.

For the molecule `O=C(Oc1ccccc1)N(CCO)Cc1coc2cccc(OCC3CCCCC3)c2c1=O`, the pIC50 is 4.60.

With `CC(C)(C)CCOc1cccc2occ(CN(CCO)C(=O)Nc3ccccc3)c(=O)c12`, the pIC50 is < 4.52.

With `CCOC(=O)N(CCO)Cc1coc2cccc(OCC3CCCCC3)c2c1=O`, the pIC50 was 4.69.

With `CCCNC(=O)N(CCO)Cc1coc2cccc(OCC3CCCCC3)c2c1=O`, the pIC50 is < 4.52.

For the molecule `CC(C)(C)CCOc1cccc2occ(CN(CCO)C(=O)Cc3ccccc3)c(=O)c12`, the pIC50 was < 4.52.

`COc1ccc(CC(=O)N(CCO)Cc2coc3cccc(OCC4CCCCC4)c3c2=O)cc1`: the pIC50 is 4.75.

As to `O=C(Cc1ccccc1)N(CCO)Cc1coc2cccc(OCC3CCCCC3)c2c1=O`, the pIC50 was 5.00.

For the molecule `CC(C)NC(=O)N(CCO)Cc1coc2cccc(OCC3CCCCC3)c2c1=O`, the pIC50 was < 4.52.

Take `CCNC(=O)N(CCO)Cc1coc2cccc(OCC3CCCCC3)c2c1=O`: the pIC50 is < 4.52.

Take `COc1ccc(NC(=O)N(CCO)Cc2coc3cccc(OCC4CCCCC4)c3c2=O)cc1`: the pIC50 is 4.74.

On to `O=C(NC1CCCCC1)N(CCO)Cc1coc2cccc(OCC3CCCCC3)c2c1=O`, for which the pIC50 is 4.77.

As usually defined, the pIC50 is the negative decadic logarithm of the IC50, by convention in mol/L.
